These are literature values, as cited in patent US20140332384A1, “BIOMARKERS RELATED WITH A SUPRA-N[…] STATE OF SELENIUM AND DIAGNOSIS METHOD IN WHICH SAID […] IDENTIFIED” (UNIVERSIDAD DE SANTIAGO DE CHILE, priority 2011, published 2014).

For the data set the following is noted: cited from earlier work.

`[Se]` [selenium]: the “Maximum Tolerable Intake” value (adult women and adult men) was 400 µg/day. For the same molecule, the “Selenium content of a food diet that could produce toxic effects” value (estimated, per kg of food diet) is “more than 1 mg per kg”.
